Measurements published in patent US5023376A, “Reduction of nitrosamine formation” (Interox America, priority 1989, dated 1991).
“Also recorded” adds a separate entry of the source. Where a name gives a salt, the structure may show the parent alone. Read-outs that look alike come from different tables or passages of the source.

How the values were obtained:
[1] = residual nitrosamine content measured by gas chromatography - thermal energy analyzer; conditions: for Residual Nitrosamines: Table 2, sum of dimethylnitrosamine and dodecylmethylnitrosamine, mole ratio about 4.3:1; for Residual Nitrosamine: Table 3
From the text: In addition to determining the effect of the phosphonates upon the extent of the reaction, the residual content of nitrosamines was independently measured by gas chromatography - thermal energy analyzer, and Table 2 below gives the sum of the two principal nitrosamines, namely dimethylnitrosamine and dodecylmethylnitrosamine.

[2] = oxidation of dodecyldimethylamine with hydrogen peroxide under transition metal stress conditions in presence of phosphonate or other chelating agent (residual peroxide/amine, amine oxide yield, amine conversion)
From the text: The residual amounts of peroxide and amine are the measured amounts in the mixture, the A O yield indicated is the weight percentage of measured amine oxide based on the amount of amine employed, assuming a purity of 97.5% and the amine conversion is based on the weight of the amine material (as 100%) that has been consumed.

[3] = Table 1, amine oxide, based on amine employed, assuming purity of 97.5%, stress conditions, mole ratio about 4.3:1
[4] = Table 1, mole ratio ATMP:metals 7.3:1 (C 5)
[5] = Table 1, stress conditions, 2.5 ppm metals, […]
[6] = Table 1, weight of amine consumed, stress conditions, mole ratio about 4.3:1
[7] = chelating agent:metals mole ratio 4.3:1
[8] = Table 3, chelating agent:metals mole ratio 4.3:1
[9] = Table 1, stress conditions, 2.5 ppm metals, phosphonate:metal mole ratio about 4.3:1
[10] = Table 1, phosphonate pre-mixed with the hydrogen peroxide solution (Ex 3)
[11] = Table 3, lower mole ratio 2.15:1 (Ex 10)

Structure (SMILES)	Residual Nitrosamines [1] [ppb]	A O yield [2, 3] [wt %]	Amine Conversion [2, 6] [wt %]	Residual Nitrosamine [1, 7] [ppb]	A O yield [2, 8] [wt %]	Amine Conversion [2, 8] [wt %]	Peroxide Consumed [2, 8] [wt %]	Residual Amine [2, 9] [wt %]	Residual Peroxide [2, 9] [wt %]	further results
O=P(O)(O)CN(CP(=O)(O)O)CP(=O)(O)O [ATMP, aminotris(methylenephosphonic acid) sodium salt]	11036	38.3	40.5							effect on residual nitrosamine content (in words) ([1]; text conclusion from Table 2): significantly worse; A O yield [2, 4]: 63.1 wt %; Amine Conversion [2, 4]: 65.7 wt %; Residual Amine [2, 4]: 9.9 wt %; Residual Peroxide [2, 4]: 0.02 wt %; Residual Amine [2, 5]: 17.3 wt %; Residual Peroxide [2, 5]: 0.02 wt %; effectiveness in the amine oxidation process (in words) ([2]; stress conditions, listed as C4, sodium salt): less amine conversion and a lower yield of amine oxide than the corresponding reaction to which no phosphonates had been introduced; effectiveness in the amine oxidation process (in words) ([2]; stress conditions, listed as C5, sodium salt): rather better than C4, but still very markedly worse than the results for Ex2/3, Ex6 or Ex7; effectiveness in the amine oxidation process (in words) ([2]; stress conditions, sodium salt): did not perform with similar effectiveness
O=C(O)CN(CC(=O)O)C1CCCCC1N(CC(=O)O)CC(=O)O (stereo not shown) [CDTA, cyclohexane-1,2-diaminotetra(acetic acid), sodium salt]				3279	34.4	68.1	99.9			
O=P(O)(O)CN(CP(=O)(O)O)C1CCCCC1N(CP(=O)(O)O)CP(=O)(O)O (stereo not shown) [CDTMP, cyclohexanediaminotetra(methylenephosphonic acid), sodium salt]	1950	97.7	97.3					0.8	0.67	effectiveness in the amine oxidation process (in words) ([2]; stress conditions): very great amelioration of the problem
O=C(O)CN(CCN(CC(=O)O)CC(=O)O)CCN(CC(=O)O)CC(=O)O [DTPA, diethylenetriaminepenta(acetic acid), sodium salt]				7017	83.9	83.2	99.6			
O=P(O)(O)CN(CCN(CP(=O)(O)O)CP(=O)(O)O)CCN(CP(=O)(O)O)CP(=O)(O)O [DTPMP, diethylenetriaminepenta(methylenephosphonic acid), sodium salt]	251	96.2	94.4					1.6	0.72	Residual Nitrosamine ([1]; lower mole ratio 2.15:1 (Ex 10)): 1031 ppb; A O yield [2, 10]: 97.2 wt %; Amine Conversion [2, 10]: 96.7 wt %; Residual Amine [2, 10]: 0.9 wt %; Residual Peroxide [2, 10]: 0.66 wt %; A O yield [2, 11]: 98.8 wt %; Amine Conversion [2, 11]: 98.3 wt %; Peroxide Consumed [2, 11]: 83.1 wt %; effectiveness in the amine oxidation process (in words) ([2]; stress conditions, sodium salt): very great amelioration of the problem; also recorded: equally as good, or possibly even slightly better when introduced via the hydrogen peroxide solution
O=P(O)(O)CN(CCN(CP(=O)(O)O)CP(=O)(O)O)CCN(CP(=O)(O)O)CP(=O)(O)O [DTPMPA]				1591	96.5	96.1	86.4			
O=C([O-])CN(CCN(CC(=O)[O-])CC(=O)[O-])CC(=O)[O-].[Na+].[Na+].[Na+].[Na+] [EDTA, ethylenediaminetetra(acetic acid), sodium salt]				3421						A O yield [2]: 35.3 wt %; Amine Conversion [2]: 54.8 wt %; Peroxide Consumed [2]: 99.9 wt %
O=P(O)(O)CN1CCN(CP(=O)(O)O)CCN(CP(=O)(O)O)CCN(CP(=O)(O)O)CCN(CP(=O)(O)O)CCN(CP(=O)(O)O)CC1 [HCMP, hexacyclenehexa(methylenephosphonic acid)]	1056	97.1	96.8					0.9	0.76	effectiveness in the amine oxidation process (in words) ([2]; stress conditions): very great amelioration of the problem
O=P(O)(O)CN(CCCCCCN(CP(=O)(O)O)CP(=O)(O)O)CP(=O)(O)O [HDTMP, hexamethylenediaminetetra(methylene phosphonic acid)]				3834	37.0	58.7	99.6			effectiveness in the amine oxidation process (in words) ([2]; stress conditions, listed as C11): singularly ineffective; effectiveness in the amine oxidation process (in words) ([2]; stress conditions, listed as hexamethylenediaminotetra(methylenephosphonic acid)): significantly inferior
CC(O)(P(=O)(O)O)P(=O)(O)O [HEDP, hydroxyethylidene-1,1-diphosphonic acid]				10024	32.1	48.2	99.6			effectiveness in the amine oxidation process (in words) ([2]; stress conditions, listed as (hydroxyethylidene)diphosphonic acid): significantly inferior; effectiveness in the amine oxidation process (in words) ([2]; stress conditions, listed as C12): ineffective
